The target of one data set is T1, Class 1 phosphodiesterase PDEB1 (Trypanosoma brucei) (UniProt Q8WQX9).
T1 sequence (whole entry): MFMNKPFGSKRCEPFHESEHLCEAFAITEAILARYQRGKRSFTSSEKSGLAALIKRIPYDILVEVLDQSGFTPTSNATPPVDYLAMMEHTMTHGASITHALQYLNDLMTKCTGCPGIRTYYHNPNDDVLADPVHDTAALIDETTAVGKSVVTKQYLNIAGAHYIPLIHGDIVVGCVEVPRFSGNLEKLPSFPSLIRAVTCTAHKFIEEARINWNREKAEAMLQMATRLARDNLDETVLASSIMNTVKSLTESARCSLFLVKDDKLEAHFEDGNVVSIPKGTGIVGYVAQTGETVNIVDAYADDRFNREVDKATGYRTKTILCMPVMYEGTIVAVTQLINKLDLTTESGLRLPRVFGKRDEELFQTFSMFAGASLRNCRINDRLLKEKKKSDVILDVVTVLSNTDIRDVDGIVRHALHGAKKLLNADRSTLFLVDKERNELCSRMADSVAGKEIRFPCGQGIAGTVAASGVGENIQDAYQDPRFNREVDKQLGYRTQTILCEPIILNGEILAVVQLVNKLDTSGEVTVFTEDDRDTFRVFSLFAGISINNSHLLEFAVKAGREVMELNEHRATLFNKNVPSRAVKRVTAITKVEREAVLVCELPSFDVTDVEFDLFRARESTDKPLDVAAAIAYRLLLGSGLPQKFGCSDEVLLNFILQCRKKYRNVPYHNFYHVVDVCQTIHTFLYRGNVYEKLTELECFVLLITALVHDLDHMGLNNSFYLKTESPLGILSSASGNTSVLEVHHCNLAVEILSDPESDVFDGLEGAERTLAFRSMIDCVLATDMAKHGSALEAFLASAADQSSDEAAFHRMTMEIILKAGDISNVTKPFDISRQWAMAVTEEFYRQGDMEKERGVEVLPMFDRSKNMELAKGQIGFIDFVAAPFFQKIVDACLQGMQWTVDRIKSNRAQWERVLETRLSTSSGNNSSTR
Briefly: Inhibition of Trypanosoma brucei PDEB1 at 100 uM.
`CCOc1ccccc1-c1nc2c(-c3ccccc3)nn(CC(N)=O)c2c(=O)[nH]1` gave an inhibition of 7%.

As for `CCCc1nn(C)c2c(=O)[nH]c(-c3nnco3)nc12`, the inhibition is 3.2%.

`CCCc1nn(C)c2c(=O)[nH]c(-c3cccnc3OCC)nc12` showed an inhibition of 41.5%.

The molecule `CCCc1nn(C)c2c(=O)[nH]c(-c3cc(S(=O)(=O)N4CCN(C)CC4)ccc3OCC)nc12` yielded an inhibition of 51.5%.

As to `CCCc1nn(C)c2c(=O)[nH]c(-c3cccnc3OC)nc12`, the inhibition is 77.2%.

With `CCOc1ccc(S(=O)(=O)N2CCN(C)CC2)cc1-c1nc2cnn(C)c2c(=O)[nH]1`, the inhibition came to 13.6%.

`CCCc1nn(C)c2c(=O)[nH]c(-c3cccnc3O)nc12`: the inhibition came out at 22.5%.

Consider `CCCc1nn(C)c2c(=O)[nH]c(-c3cnccn3)nc12`, for which the inhibition stood at 6.5%.

`CCCc1nn(C)c2c(=O)[nH]c(-c3snnc3C)nc12` showed an inhibition of 16.3%.

With `CCOc1ccc(S(=O)(=O)N2CCN(C)CC2)cc1-c1nc2c(-c3ccccc3)nn(C)c2c(=O)[nH]1`, the inhibition turned out to be 17.5%.

Turning to `CCOc1ccccc1-c1nc2c(-c3ccccc3)n[nH]c2c(=O)[nH]1`, the inhibition was found to be 22.9%.

`CCCc1nn(C)c2c(=O)[nH]c(-c3nccnc3N)nc12` yielded an inhibition of 14.1%.

In the case of `CCCc1nn(C)c2c(=O)[nH]c(-c3ccccc3OCC)nc12`, the inhibition stood at 21.8%.

As for `CCCc1nn(C)c2c(=O)[nH]c(-c3ccc(=O)[nH]n3)nc12`, the inhibition was found to be 11.1%.

As for `CCCc1nn(C)c2c(=O)[nH]c(-c3ccoc3)nc12`, the inhibition was determined as 13.8%.

`CCCc1n[nH]c2c(=O)[nH]c(-c3cc(S(=O)(=O)N4CCN(C)CC4)ccc3OCC)nc12`: the inhibition came to 16%.

Regarding `CCCc1nn(C)c2c(=O)[nH]c(-c3ccc(O)cc3)nc12`, the inhibition was determined as 24%.

The molecule `CCCc1nn(C)c2c(=O)[nH]c(-c3cnc(C)cn3)nc12` yielded an inhibition of 30%.

`CCCc1nn(C)c2c(=O)[nH]c(-c3cscn3)nc12` registered an inhibition of 25.4%.

In turn, `CCCc1nn(C)c2c(=O)[nH]c(-c3oc(C)nc3C)nc12` came in with an inhibition of 29%.

`CCCc1nn(C)c2c(=O)[nH]c(-c3cn(C)nc3C)nc12`: the inhibition is 7.2%.

The molecule `CCCc1nn(C)c2c(=O)[nH]c(-c3cccnc3OC(C)C)nc12` yielded an inhibition of 53.8%.

Take `CCOc1ccc(S(=O)(=O)N2CCN(C)CC2)cc1-c1nc2c(-c3ccccc3)n[nH]c2c(=O)[nH]1`: the inhibition was determined as 70.9%.

Molecule `CCCc1nn(C)c2c(=O)[nH]c(-c3cn(C)cn3)nc12` registered an inhibition of 5.3%.

On to `CCCc1nn(C)c2c(=O)[nH]c(-c3ncccc3C)nc12`, for which the inhibition came to 72.1%.

With `CCCc1nn(-c2cccnc2)c2c(=O)[nH]c(-c3cc(S(=O)(=O)N4CCN(C)CC4)ccc3OCC)nc12`, the inhibition was 32.4%.

For the molecule `CCCc1nn(C)c2c(=O)[nH]c(-c3cccc(S(=O)(=O)N4CCN(C)CC4)c3)nc12`, the inhibition was 8.4%.

System in the next data set: not listed separately
Description: Solubility of the compound in 10% DMSO. The class given is physicochemical.
As for `CCOc1ccccc1-c1nc2c(-c3ccccc3)nn(-c3ccccc3)c2c(=O)[nH]1`, the solubility result was “Insoluble”.

Regarding `CCCc1n[nH]c2c(O)nc(-c3ccccc3OCC)nc12`, the solubility result is given as “Insoluble”.

On to `CCCc1nn(C)c2c(=O)[nH]c(-c3ccnn3C)nc12`, for which the solubility result is “Insoluble”.

With `CCOc1ccc(S(=O)(=O)N2CCN(C)CC2)cc1-c1nc2c(C)nn(C)c2c(=O)[nH]1`, the solubility entry is given as “Insoluble”.

In the case of `CCCc1nn(C)c2c(=O)[nH]c(-c3ccsc3)nc12`, the solubility entry is “Insoluble”.

`CCOc1ccccc1-c1nc2c(-c3ccccc3)nn(-c3cccnc3)c2c(=O)[nH]1`: the solubility entry is “Insoluble”.

Values taken from ChEMBL document CHEMBL2016513, “Synthesis and evaluation of human phosphodiesterases (PDE) 5 inhibitor analogs as trypanosomal PDE inhibitors. Part 1. Sildenafil analogs” (Bioorg Med Chem Lett, 2012).
